Experimental data taken from PubChem BioAssay AID2060509 (Molecular Pharmacology Branch, DTP, NCI, 2025).

Test system: 485176-168-R4-J1-PDC spheroids with HUVEC/MSC, viability
Test: Anticancer human tumor 485176-168-R4-J1-PDC patient-derived pancreatic adenocarcinoma cell line growth inhibition [GQUAD]
Details: for IC50: curve of first compound; for viability, T/C: stronger effect = lower value
Method in brief: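 Viability of tumor cells grown as complex spheroids with endothelial and stromal cells, exposed to drug combinations. Top concentration at or near clinical Cmax (else 10 microM), diluted in half-log increments.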

[1] = second compound 0.0316 µM, first compound 0.0316 µM
[2] = second compound 0.0316 µM, first compound 0.316 µM
[3] = second compound 0.1 µM, first compound 0.0316 µM
[4] = second compound 0.1 µM, first compound 0.316 µM
[5] = second compound 0.316 µM, first compound 0.0316 µM
[6] = second compound 0.316 µM, first compound 0.316 µM
[7] = second compound 1 µM, first compound 0.0316 µM
[8] = second compound 1 µM, first compound 0.316 µM
[9] = second compound 3.16 µM, first compound 0.0316 µM
[10] = second compound 3.16 µM, first compound 0.316 µM
[11] = second compound 10 µM, first compound 0.0316 µM
[12] = second compound 10 µM, first compound 0.316 µM
[13] = second compound 0.0316 µM, first compound 0.1 µM
[14] = second compound 0.0316 µM, first compound 1 µM
[15] = second compound 0.0316 µM, first compound 3.16 µM
[16] = second compound 0.0316 µM, first compound 10 µM
[17] = second compound 0.1 µM, first compound 0.1 µM
[18] = second compound 0.1 µM, first compound 1 µM
[19] = second compound 0.1 µM, first compound 3.16 µM
[20] = second compound 0.1 µM, first compound 10 µM
[21] = second compound 0.316 µM, first compound 0.1 µM
[22] = second compound 0.316 µM, first compound 1 µM
[23] = second compound 0.316 µM, first compound 3.16 µM
[24] = second compound 0.316 µM, first compound 10 µM
[25] = second compound 1 µM, first compound 0.1 µM
[26] = second compound 1 µM, first compound 1 µM
[27] = second compound 1 µM, first compound 3.16 µM
[28] = second compound 1 µM, first compound 10 µM
[29] = second compound 3.16 µM, first compound 0.1 µM
[30] = second compound 3.16 µM, first compound 1 µM
[31] = second compound 3.16 µM, first compound 3.16 µM
[32] = second compound 3.16 µM, first compound 10 µM
[33] = second compound 10 µM, first compound 0.1 µM
[34] = second compound 10 µM, first compound 1 µM
[35] = second compound 10 µM, first compound 3.16 µM
[36] = second compound 10 µM, first compound 10 µM
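Note: spheroids exposed to compounds for seven days before readout.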
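Throughout, for viability, T/C: percent viability relative to DMSO vehicle control wells as 100%.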

Structure (SMILES): Cc1[nH]c2ccccc2c1CCNCc1ccc(/C=C/C(=O)NO)cc1 + CN(C)c1ccc(Nc2c3ccc(NC(=O)CCN4CCCC4)cc3nc3cc(NC(=O)CCN4CCCC4)ccc23)cc1
- IC50 (second compound 0.0316 µM): 116 nM
- IC50 (second compound 0.1 µM): 132 nM
- IC50 (second compound 0.316 µM): 126 nM
- IC50 (second compound 1 µM): 136 nM
- IC50 (second compound 3.16 µM): 88.3 nM
- IC50 (second compound 10 µM): 120 nM
- viability, T/C (second compound 0.0316 µM, first compound 0.000999 µM): 102%
- viability, T/C (second compound 0.0316 µM, first compound 0.00316 µM): 89.9%
- viability, T/C (second compound 0.0316 µM, first compound 0.00999 µM): 82.7%
- viability, T/C [1]: 69.4%
- viability, T/C (second compound 0.0316 µM, first compound 0.0999 µM): 64.6%
- viability, T/C [2]: 12.9%
- viability, T/C (second compound 0.1 µM, first compound 0.000999 µM): 103%
- viability, T/C (second compound 0.1 µM, first compound 0.00316 µM): 87.5%
- viability, T/C (second compound 0.1 µM, first compound 0.00999 µM): 89.2%
- viability, T/C [3]: 86.1%
- viability, T/C (second compound 0.1 µM, first compound 0.0999 µM): 61.9%
- viability, T/C [4]: 12.1%
- viability, T/C (second compound 0.316 µM, first compound 0.000999 µM): 80.1%
- viability, T/C (second compound 0.316 µM, first compound 0.00316 µM): 96.7%
- viability, T/C (second compound 0.316 µM, first compound 0.00999 µM): 82.9%
- viability, T/C [5]: 82%
- viability, T/C (second compound 0.316 µM, first compound 0.0999 µM): 59.4%
- viability, T/C [6]: 11.8%
- viability, T/C (second compound 1 µM, first compound 0.000999 µM): 97.3%
- viability, T/C (second compound 1 µM, first compound 0.00316 µM): 96.7%
- viability, T/C (second compound 1 µM, first compound 0.00999 µM): 83%
- viability, T/C [7]: 64.2%
- viability, T/C (second compound 1 µM, first compound 0.0999 µM): 76.5%
- viability, T/C [8]: 10%
- viability, T/C (second compound 3.16 µM, first compound 0.000999 µM): 113%
- viability, T/C (second compound 3.16 µM, first compound 0.00316 µM): 97.9%
- viability, T/C (second compound 3.16 µM, first compound 0.00999 µM): 86%
- viability, T/C [9]: 74.5%
- viability, T/C (second compound 3.16 µM, first compound 0.0999 µM): 47.9%
- viability, T/C [10]: 14.5%
- viability, T/C (second compound 10 µM, first compound 0.000999 µM): 104%
- viability, T/C (second compound 10 µM, first compound 0.00316 µM): 83.5%
- viability, T/C (second compound 10 µM, first compound 0.00999 µM): 69.3%
- viability, T/C [11]: 90.7%
- viability, T/C (second compound 10 µM, first compound 0.0999 µM): 58.3%
- viability, T/C [12]: 5.87%

Structure (SMILES): O=C(NO)c1cnc(N2CCN(S(=O)(=O)c3ccc4ccccc4c3)CC2)nc1 + CN(C)c1ccc(Nc2c3ccc(NC(=O)CCN4CCCC4)cc3nc3cc(NC(=O)CCN4CCCC4)ccc23)cc1
- IC50 (second compound 0.0316 µM): 492 nM
- IC50 (second compound 0.1 µM): 472 nM
- IC50 (second compound 0.316 µM): 506 nM
- IC50 (second compound 1 µM): 455 nM
- IC50 (second compound 3.16 µM): 538 nM
- IC50 (second compound 10 µM): 377 nM
- viability, T/C [1]: 92.8%
- viability, T/C [13]: 84.5%
- viability, T/C [2]: 74.8%
- viability, T/C [14]: 10.4%
- viability, T/C [15]: 0.23%
- viability, T/C [16]: 0.27%
- viability, T/C [3]: 85.5%
- viability, T/C [17]: 92.1%
- viability, T/C [4]: 70.8%
- viability, T/C [18]: 10.7%
- viability, T/C [19]: 0.21%
- viability, T/C [20]: 0.2%
- viability, T/C [5]: 112%
- viability, T/C [21]: 85.6%
- viability, T/C [6]: 78.5%
- viability, T/C [22]: 9.79%
- viability, T/C [23]: 0.19%
- viability, T/C [24]: 0.17%
- viability, T/C [7]: 114%
- viability, T/C [25]: 88.8%
- viability, T/C [8]: 70.9%
- viability, T/C [26]: 12.5%
- viability, T/C [27]: 0.21%
- viability, T/C [28]: 0.2%
- viability, T/C [9]: 91.2%
- viability, T/C [29]: 98.4%
- viability, T/C [10]: 84.5%
- viability, T/C [30]: 9.67%
- viability, T/C [31]: 0.25%
- viability, T/C [32]: 0.2%
- viability, T/C [11]: 83.2%
- viability, T/C [33]: 73.6%
- viability, T/C [12]: 57.7%
- viability, T/C [34]: 12.3%
- viability, T/C [35]: 0.25%
- viability, T/C [36]: 0.22%

Structure (SMILES): O=c1[nH]cc(F)c(=O)[nH]1 + CN(C)c1ccc(Nc2c3ccc(NC(=O)CCN4CCCC4)cc3nc3cc(NC(=O)CCN4CCCC4)ccc23)cc1
- IC50 (second compound 0.0316 µM): > 10000 nM
- IC50 (second compound 0.1 µM): 2630 nM
- IC50 (second compound 0.316 µM): > 10000 nM
- IC50 (second compound 1 µM): > 10000 nM
- IC50 (second compound 3.16 µM): > 10000 nM
- IC50 (second compound 10 µM): 932 nM
- viability, T/C [1]: 100%
- viability, T/C [13]: 105%
- viability, T/C [2]: 78.8%
- viability, T/C [14]: 61.8%
- viability, T/C [15]: 53.6%
- viability, T/C [16]: 53.6%
- viability, T/C [3]: 102%
- viability, T/C [17]: 87.7%
- viability, T/C [4]: 88.8%
- viability, T/C [18]: 56.2%
- viability, T/C [19]: 46.3%
- viability, T/C [20]: 51%
- viability, T/C [5]: 97.3%
- viability, T/C [21]: 91.5%
- viability, T/C [6]: 83.3%
- viability, T/C [22]: 52%
- viability, T/C [23]: 66.1%
- viability, T/C [24]: 57.2%
- viability, T/C [7]: 94.4%
- viability, T/C [25]: 106%
- viability, T/C [8]: 71.4%
- viability, T/C [26]: 56.1%
- viability, T/C [27]: 52%
- viability, T/C [28]: 53.2%
- viability, T/C [9]: 90.8%
- viability, T/C [29]: 94.1%
- viability, T/C [10]: 73.9%
- viability, T/C [30]: 59.6%
- viability, T/C [31]: 61.8%
- viability, T/C [32]: 47.2%
- viability, T/C [11]: 84.9%
- viability, T/C [33]: 80.2%
- viability, T/C [12]: 59.9%
- viability, T/C [34]: 51.4%
- viability, T/C [35]: 46.4%
- viability, T/C [36]: 45.5%
